According to US20260198493A1, “HYDRAZIDE COMPOUND AND AGRICULTURAL/HORTICULTURAL FUNGICIDE” (Nippon Soda Co., Ltd., priority 2022, published 2026):

Columns and labels:
Colletotrichum acutatum = assay: Fungicidal effect test against fungi causing apple anthracnose; settings: 96 h, read-out: growth inhibition ratio
Glomerella cingulata = assay: Fungicidal effect test against fungi causing grape ripe rot disease; settings: Colletotrichum gloeosporioides, 72 h, read-out: growth inhibition ratio
[1] = test system: Erysiphe graminis f.sp.tritici; assay: Control test of wheat powdery mildew disease (sprayed young wheat seedlings); format: in vivo; settings: Blumeria graminis, 144 h, 125 ppm by mass spray, six days after inoculation
Excerpt: [formula] […] Then, the drug liquid was sprayed onto young wheat seedlings cultivated in a nursery pot (variety “Chihoku”, one-to two-leaf stage), and then air-dried. Thereafter, conidiospores of fungi causing wheat powdery mildew disease (Erysiphe graminis f.sp.tritici) were sprinkled on the young wheat seedlings to inoculate them (treated area). As a control, the conidiospores of fungi causing wheat powdery mildew disease (Erysiphe graminis f.sp.tritici) were sprinkled on young wheat seedlings unsprayed with the drug liquid (untreated area). They were left still in a greenhouse at 20° C. Six days after inoculation, leaves of young wheat seedlings were visually observed, and the lesion area ratio was determined to calculate the control value in a similar manner to the previous test.

Botrytis cinerea [2] = format: cell-based; settings: 120 h, 25 ppm by volume, Vogel medium, 20° C., five days, dark, read-out: growth inhibition ratio
Botrytis cinerea [3] = assay: Control test of cucumber gray mold (sprayed young cucumber seedlings); format: in vivo; settings: 96 h, 125 ppm by mass spray, four days after inoculation
Method: Then, the drug liquid was sprayed onto young cucumber seedlings cultivated in a nursery pot (variety “Jihai”-based, cotyledon stage), and then air-dried. […] They were left still in a moist room at 20° C. Four days after inoculation, leaves of the young cucumber seedlings were visually observed, and the control value was calculated from the lesion area ratio in accordance with the following equation. [formula]

Venturia inaequalis = assay: Control test of apple scab disease (sprayed young apple seedlings); format: in vivo; settings: 125 ppm by mass spray, 12 to 14 days after inoculation
Method: [formula] […] Then, the drug liquid was sprayed onto young apple seedlings cultivated in a nursery pot (variety “Orin”, three-to four-leaf stage), and then air-dried. Thereafter, conidiospores of fungi causing apple scab disease (Venturia inaequalis) were inoculated thereon (treated area). As a control, the conidiospores were inoculated in a similar manner to the above on young apple seedlings unsprayed with the drug liquid (untreated area). They were left still at 20° C. in a moist room with light and dark cycles repeated every 12 hours. 12 Days to 14 days after inoculation, leaves of young apple seedlings were visually observed, and the control value was calculated from the lesion area ratio in accordance with the equation used in the control test of cucumber gray mold.

CC(=O)N(Cc1ccc(Cl)cc1Cl)NC(=O)c1cc(C)nnc1Oc1cccc(C2CC2)c1F [b-13]
≥ 75%: inhibition of growth at 25 ppm (Colletotrichum acutatum) | inhibition of growth at 25 ppm (Glomerella cingulata) | pest or weed control at 125 ppm [1] | inhibition of growth at 25 ppm (Botrytis cinerea [2]) | pest or weed control at 125 ppm (Botrytis cinerea [3])

Cc1ccc(CN(NC(=O)c2cc(C)nnc2Oc2cccc(C3CC3)c2F)S(C)(=O)=O)c(C)c1 [b-26, N′-(3-(3-cyclopropyl-2-fluorophenoxy)-6-methylpyridazine-4-carbonyl)-N-(2,4-dimethylbenzyl)methanesulfonohydrazide]
≥ 75%: pest or weed control at 125 ppm (Venturia inaequalis) | inhibition of growth at 25 ppm (Colletotrichum acutatum) | inhibition of growth at 25 ppm (Glomerella cingulata) | inhibition of growth at 25 ppm (Botrytis cinerea [2])

COC(=O)N(Cc1ccc(C)cc1C)NC(=O)c1cc(C)nnc1Oc1cccc(Cl)c1Br [b-35]
≥ 75%: pest or weed control at 125 ppm (Venturia inaequalis) | inhibition of growth at 25 ppm (Botrytis cinerea [2])

CCc1cccc(Oc2nnc(C)cc2C(=O)NN(Cc2ccc(C)cc2C)C(=O)OC)c1 [b-50]
≥ 75%: inhibition of growth at 25 ppm (Colletotrichum acutatum) | inhibition of growth at 25 ppm (Glomerella cingulata) | pest or weed control at 125 ppm [1] | inhibition of growth at 25 ppm (Botrytis cinerea [2]) | pest or weed control at 125 ppm (Botrytis cinerea [3])

CC(=O)C(=O)N(Cc1ccc(C)cc1C)NC(=O)c1cc(C)nnc1Oc1cccc(C2CC2)c1F [b-58, 3-(3-Cyclopropyl-2-fluorophenoxy)-N′-(2,4-dimethylbenzyl)-6-methyl-N′-(2-oxopropanoyl)pyridazine-4-carbohydrazide]
≥ 75%: inhibition of growth at 25 ppm (Colletotrichum acutatum) | inhibition of growth at 25 ppm (Glomerella cingulata) | pest or weed control at 125 ppm [1] | inhibition of growth at 25 ppm (Botrytis cinerea [2]) | pest or weed control at 125 ppm (Botrytis cinerea [3])

COC(=O)N(Cc1ccc2ccccc2c1)NC(=O)c1cc(C)nnc1Oc1cccc(C2CC2)c1F [b-71]
≥ 75%: pest or weed control at 125 ppm (Venturia inaequalis) | inhibition of growth at 25 ppm (Colletotrichum acutatum) | inhibition of growth at 25 ppm (Glomerella cingulata) | inhibition of growth at 25 ppm (Botrytis cinerea [2])

COC(=O)N(Cc1ccc(Cl)nc1Cl)NC(=O)c1cc(C)nnc1Oc1cccc(C2CC2)c1F [b-93, Methyl 2-(3-(3-cyclopropyl-2-fluorophenoxy)-6-methylpyridazine-4-carbonyl)-1-((2,6-dichloropyridin-3-yl)methyl)hydrazine-1-carboxylate]
≥ 75%: inhibition of growth at 25 ppm (Colletotrichum acutatum) | inhibition of growth at 25 ppm (Glomerella cingulata) | pest or weed control at 125 ppm [1] | inhibition of growth at 25 ppm (Botrytis cinerea [2])

COC(=O)N(Cc1ccc(C)cc1C)NC(=O)c1cc(N(C)C)ncc1Oc1cccc(C2CC2)c1F [b-125]
≥ 75%: inhibition of growth at 25 ppm (Colletotrichum acutatum) | inhibition of growth at 25 ppm (Glomerella cingulata) | pest or weed control at 125 ppm [1] | inhibition of growth at 25 ppm (Botrytis cinerea [2])

COC(=O)N(Cc1ccc(C)cc1C)NC(=O)c1cc(C)nnc1Oc1cc(C)cc(F)c1 [b-144]
≥ 75%: pest or weed control at 125 ppm (Venturia inaequalis) | inhibition of growth at 25 ppm (Colletotrichum acutatum) | inhibition of growth at 25 ppm (Glomerella cingulata) | inhibition of growth at 25 ppm (Botrytis cinerea [2])

COC(=O)N(Cc1ccc([N+](=O)[O-])cc1C)NC(=O)c1cc(C)nnc1Oc1cccc(C2CC2)c1F [b-162]
≥ 75%: inhibition of growth at 25 ppm (Colletotrichum acutatum) | inhibition of growth at 25 ppm (Glomerella cingulata) | pest or weed control at 125 ppm [1] | inhibition of growth at 25 ppm (Botrytis cinerea [2])

COC(=O)N(Cc1ccc(-c2ccc(F)cc2)cc1)NC(=O)c1cc(C)nnc1Oc1cccc(C2CC2)c1F [b-164]
≥ 75%: pest or weed control at 125 ppm (Venturia inaequalis) | inhibition of growth at 25 ppm (Colletotrichum acutatum) | inhibition of growth at 25 ppm (Glomerella cingulata) | inhibition of growth at 25 ppm (Botrytis cinerea [2])

COC(=O)N(Cc1ccc(Oc2ccccc2)cc1)NC(=O)c1cc(C)nnc1Oc1cccc(C2CC2)c1F [b-165]
≥ 75%: pest or weed control at 125 ppm (Venturia inaequalis) | inhibition of growth at 25 ppm (Colletotrichum acutatum) | inhibition of growth at 25 ppm (Glomerella cingulata) | inhibition of growth at 25 ppm (Botrytis cinerea [2])

COC(=O)N(Cc1ccc2ncsc2c1)NC(=O)c1cc(C)nnc1Oc1cccc(C2CC2)c1F [b-173]
≥ 75%: pest or weed control at 125 ppm (Venturia inaequalis) | inhibition of growth at 25 ppm (Colletotrichum acutatum) | inhibition of growth at 25 ppm (Glomerella cingulata)

CSC(=S)N(Cc1ccc(C)cc1C)NC(=O)c1cc(C)nnc1Oc1cccc(C2CC2)c1F [b-174]
≥ 75%: pest or weed control at 125 ppm (Venturia inaequalis) | inhibition of growth at 25 ppm (Colletotrichum acutatum) | inhibition of growth at 25 ppm (Glomerella cingulata)
